Test results from patent US7803774B2, “Modulators of β-amyloid peptide aggregation” (Praecis Pharmaceuticals, Inc., priority 1999, dated 2010).
Structures can show the parent of a compound that is named as a salt.

Tests used:
Aβ1-40 [1] = target: T1, Aβ1-40 (Homo sapiens, UniProt P05067); test: Nucleation assay (turbidity, change in lag time of Aβ aggregation); format: biochemical; conditions: for Nucleation assay data 0.3 μM: 0.3 μM test compound; for Nucleation assay data 0.3 μM / Nucleation assay data 1 μM / Nucleation assay data 3 μM: ΔLag ratio to control; for Nucleation assay data 0.3 μM / Nucleation assay data 1 μM / Nucleation assay data 3 μM / Nucleation assay data: Table II; for Nucleation assay data 1 μM: 1 μM test compound; for Nucleation assay data 3 μM: 3 μM test compound; for Nucleation assay data 3 μM / Nucleation assay Δ lag 1.25 μM / Nucleation assay Δ lag 5 μM / Nucleation assay Δ lag […]: 5 μM Aβ1-40; for Nucleation assay data: footnote *: measured at 1.25 μM of compound; for Nucleation assay Δ lag 1.25 μM: 1.25 μM test compound; for Nucleation assay Δ lag 1.25 μM / Nucleation assay Δ lag […]: ratio to control lag time; for Nucleation assay Δ lag 5 μM: 5 μM test compound, ratio of lag time with compound to lag time of control; for Nucleation assay Δ lag […]: […] test compound
T1 construct: first Aβ1-40 peptide is dissolved in HFIP
T1 sequence (P05067 672-711): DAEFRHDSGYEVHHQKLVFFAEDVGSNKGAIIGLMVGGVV
Description: The nucleation assay is employed to determine the ability of test compounds to alter (e.g. inhibit) the early events in formation of β-AP fibers from monomeric β-AP. Characteristic of a nucleated polymerization mechanism, a lag time is observed prior to nucleation, after which the peptide rapidly forms fibers as reflected in a linear rise in turbidity. The time delay before polymerization of β-AP monomer can be quantified as well as the extent of formation of insoluble fiber by light scattering (turbidity). Polymerization reaches equilibrium when the maximum turbidity reaches a plateau. The turbidity of a solution of natural β-AP in the absence or presence of various concentrations of a β-amyloid modulator compound is determined by measuring the apparent absorbance of the solution at 405 nm (A405nm) over time. The threshold of sensitivity for the measurement of turbidity is in the range of 15-20 μM β-AP. […] This assay can be performed using stirring or shaking to accelerate polymerization, thereby increasing the speed of the assay. Moreover the assay can be adapted to a 96-well plate format to screen multiple compounds.
To perform the nucleation assay, first Aβ1-40 peptide is dissolved in HFIP (1,1,1,3,3,3-Hexafluoro-2-propanol; Aldrich 10,522-8) at a concentration of 2 mg peptide/ml and incubated at room temperature for 30 min. HFIP-solubilized peptide is sonicated in a waterbath sonicator for 5 min at highest setting, then evaporated to dryness under a stream of argon. The peptide film is resuspended in anhydrous dimethylsulfoxide (DMSO) at a concentration of 6.9 mg/ml (25× concentration), sonicated for 5 min as before, then filtered through a 0.2 micron nylon syringe filter (VWR cat. No. 28196-050). Test compounds are dissolved in DMSO at a 100× concentration. Four volumes of 25×Aβ1-40 peptide in DMSO are combined with one volume of test compound in DMSO in a glass vial, and mixed to produce a 1:1 molar ratio of AP peptide to test compound. For different molar ratios, test compounds are diluted with DMSO prior to addition to Aβ1-40, in order to keep the final DMSO and Aβ1-40 concentrations constant. […] Ten microliters of the mixture is then added to the bottom of a well of a Corning Costar ultra low binding 96-well plate (Coming Costar, Cambridge Mass.; cat. No. 2500). Ninety microliters of water is added to the well, the plate is shaken on a rotary shaken at a constant speed at room temperature for 30 seconds, an additional 100 μl of 2×PTL buffer (20 mM NaH2PO4, 300 mM NaCl, pH 7.4) is added to the well, the plate is reshaken for 30 seconds and a baseline (t=0) turbidity reading is taken by measuring the apparent absorbance at 405 nm using a Bio-Rad Model 450 Microplate Reader. The plate is then returned to the shaker and shaken continuously for 5 hours. Turbidity readings are taken at 15 minute intervals.
β-amyloid aggregation in the absence of any modulators results in enhanced turbidity of the natural β-AP solution (i.e., an increase in the apparent absorbance at 405 nm over time).
The modulator compounds were evaluated in nucleation assays utilizing 5 μM Aβ1-40 and either 5 μM, 2.5 μM, 1.25 μM, 3 μM, 1 μM, or 0.3 μM test compound. The change in lag time (ΔLag) is presented as the ratio of the lag time observed in the of the test compound (at either 5 μM, 2.5 μM, 1.25 μM, 3 μM, 1 μM, or 0.3 μM) to the lag time of the control.

Aβ1-40 [2] = target: T1, Aβ1-40; test: as above; format: biochemical; conditions: for Nucleation assay data: footnote *: measured at 0.6 μM of compound, Table II
[3] = BUI#77: IN VIVO: IV BRAIN LEVELS @ 1 HOUR post 1 mL x 1 min IV
Procedure: Table printed on a drawing sheet, Fig. 1
Title: BUI#77: IN VIVO: IV BRAIN LEVELS @ 1 HOUR post 1 mL x 1 min IV
The patent's description of the figure: FIG. 1 is a table depicting the results from a brain uptake assay.
First reader's note: Rows with only a Structure cell (l-v-f-f-a, TFA. l-v-f-f-l, TFA. l-f-f-v-l) are bold group headings for the rows below them; the asterisk printed in the gap before the UNIT DOSE block is kept in its own unheaded column.

2TFA.H-(lfkvl)-NH2 [PPI-1321]
Nucleation assay data 0.3 μM (Aβ1-40 [1]): <1
Nucleation assay data 1 μM (Aβ1-40 [1]): <1
Nucleation assay data 3 μM (Aβ1-40 [1]): <1

2TFA.H-lvf-NH-NH-fvl-H [PPI-1125]
Nucleation assay data (Aβ1-40 [1]): >2.5
Nucleation assay data (Aβ1-40 [2]): 2.0

CC(C)C[C@@H](N)C(=O)N[C@H](Cc1ccccc1)C(=O)N[C@H](Cc1ccccc1)C(=O)N[C@@H](C(=O)N[C@H](CC(C)C)C(N)=O)C(C)C [578 | 578, TFA. H-(lffvl)-NH2]
MAX SOLUBILITY | Brain Levels (nM) + CsA | mean [3]: 57 nM
MAX SOLUBILITY | Brain Levels (nM) | mean [3]: 7.6 nM
UNIT DOSE (2mg/kg IV) | (+)CsA [3]: 16 nM
UNIT DOSE (2mg/kg IV) | ALONE [3]: 2 nM

CC(C)C[C@@H](N)C(=O)N[C@@H](C(=O)N[C@H](Cc1ccccc1)C(=O)N[C@H](Cc1ccccc1)C(=O)N[C@H](C)C(N)=O)C(C)C [655 | 655, TFA. H-(lvffa)-NH2]
MAX SOLUBILITY | Brain Levels (nM) + CsA | mean [3]: 50 nM
MAX SOLUBILITY | Brain Levels (nM) | mean [3]: 7.9 nM
UNIT DOSE (2mg/kg IV) | (+)CsA [3]: 22 nM
UNIT DOSE (2mg/kg IV) | ALONE [3]: 3 nM

CN[C@H](CC(C)C)C(=O)N[C@@H](C(=O)N[C@H](Cc1ccccc1)C(=O)N[C@H](Cc1ccccc1)C(=O)N[C@H](C)C(N)=O)C(C)C [1019 | 1019, TFA. N-methyl-(lvffa)-NH2]
MAX SOLUBILITY | Brain Levels (nM) + CsA | mean [3]: 29 nM
MAX SOLUBILITY | Brain Levels (nM) | mean [3]: 7.2 nM
UNIT DOSE (2mg/kg IV) | (+)CsA [3]: 17 nM
UNIT DOSE (2mg/kg IV) | ALONE [3]: 4 nM

CC(C)C[C@@H](N)C(=O)N[C@H](Cc1c(F)c(F)c(F)c(F)c1F)C(=O)N[C@H](Cc1ccccc1)C(=O)N[C@@H](C(=O)N[C@H](CC(C)C)C(N)=O)C(C)C [PPI-1324, TFA.H-(l-[F5]f-fvl)-NH2]
MAX SOLUBILITY | Brain Levels (nM) + CsA | mean [3]: 23 nM
MAX SOLUBILITY | Brain Levels (nM) | mean [3]: 4.1 nM
UNIT DOSE (2mg/kg IV) | (+)CsA [3]: 9 nM
UNIT DOSE (2mg/kg IV) | ALONE [3]: 2 nM

TFA.H-(Glvffl)-NH2 [PPI-1013]
Nucleation assay Δ lag (Aβ1-40 [1]; footnote #: measured at 1.25 μM of compound, Table I): >3
Nucleation assay Δ lag (Aβ1-40 [2]; footnote #: measured at 0.6 μM of compound, Table I): 2

TFA.H-(lf-D-Cha-vl)-NH2 [PPI-1318]
Nucleation assay data 0.3 μM (Aβ1-40 [1]): 1
Nucleation assay data 1 μM (Aβ1-40 [1]): 2
Nucleation assay data 3 μM (Aβ1-40 [1]): >5

TFA.H-(lf-[F5]f-vl)-NH2 [PPI-1320]
Nucleation assay data 0.3 μM (Aβ1-40 [1]): 1
Nucleation assay data 1 μM (Aβ1-40 [1]): 3
Nucleation assay data 3 μM (Aβ1-40 [1]): >5

TFA.H-(lvffa)-dimethylamide [PPI-993]
Nucleation assay Δ lag 1.25 μM (Aβ1-40 [1]): 1
Nucleation assay Δ lag 5 μM (Aβ1-40 [1]): 1
Nucleation assay Δ lag […] (Aβ1-40 [1]): 1

TFA.H-(lvffa)-isopropylamide [PPI-992]
Nucleation assay Δ lag 1.25 μM (Aβ1-40 [1]): 1
Nucleation assay Δ lag 5 μM (Aβ1-40 [1]): 3
Nucleation assay Δ lag […] (Aβ1-40 [1]): 1

TFA.N,N-diethyl-(Gaffvl)-NH2 [PPI-1005]
Nucleation assay Δ lag 1.25 μM (Aβ1-40 [1]): 1
Nucleation assay Δ lag 5 μM (Aβ1-40 [1]): 3
Nucleation assay Δ lag […] (Aβ1-40 [1]): 3

TFA.N,N-diethyl-(affvl)-NH2 [PPI-1006]
Nucleation assay Δ lag 1.25 μM (Aβ1-40 [1]): 1
Nucleation assay Δ lag 5 μM (Aβ1-40 [1]): 1
Nucleation assay Δ lag […] (Aβ1-40 [1]): 1

TFA.N,N-dimethyl-(Gaffv1)-NH2 [PPI-803]
Nucleation assay Δ lag 1.25 μM (Aβ1-40 [1]): <1
Nucleation assay Δ lag 5 μM (Aβ1-40 [1]): <1
Nucleation assay Δ lag […] (Aβ1-40 [1]): <1

TFA.N,N-dimethyl-(affvl)-NH2 [PPI-913]
Nucleation assay Δ lag 1.25 μM (Aβ1-40 [1]): 1
Nucleation assay Δ lag 5 μM (Aβ1-40 [1]): 1
Nucleation assay Δ lag […] (Aβ1-40 [1]): 1

TFA.N-ethyl-(Gaffvl)-NH2 [PPI-969]
Nucleation assay Δ lag 1.25 μM (Aβ1-40 [1]): 3
Nucleation assay Δ lag 5 μM (Aβ1-40 [1]): >5
Nucleation assay Δ lag […] (Aβ1-40 [1]): >5

TFA.N-isopropyl-(Gaffvl)-NH2 [PPI-970]
Nucleation assay Δ lag 1.25 μM (Aβ1-40 [1]): 1
Nucleation assay Δ lag 5 μM (Aβ1-40 [1]): >5
Nucleation assay Δ lag […] (Aβ1-40 [1]): >5

TFA.N-methyl-(Gaffvl)-NH2 [PPI-968]
Nucleation assay Δ lag 1.25 μM (Aβ1-40 [1]): 2
Nucleation assay Δ lag 5 μM (Aβ1-40 [1]): >5
Nucleation assay Δ lag […] (Aβ1-40 [1]): >5

TFA.N-methyl-(lvffl)-NH2 [PPI-1019]
Nucleation assay data (Aβ1-40 [1]): >2.5
Nucleation assay data (Aβ1-40 [2]): 2.0
